Assay in all cases: DTP human tumour cell line panel, 48 h
Experiment [1] relates to ACHN renal.
Experiment [2] deals with BT-549 breast.
The test system of experiment [3] is HCC-2998 colon.
Experiment [4] has as its system HCT-15 colon.
In experiment [5] the test system is HOP-92 NSCLC.
Experiment [6] concerns HS 578T breast.
The test system of experiment [7] is MDA-MB-231 breast.
Experiment [8] concerns MDA-N.
The test system of experiment [9] is NCI-H23 lung.
The subject of experiment [10] is OVCAR-3 ovarian.
In experiment [11] the test system is OVCAR-8 ovarian.
The subject of experiment [12] is SF-539 CNS.
The test system of experiment [13] is SN12C renal.
Experiment [14] has as its system SW-620 colon.
The test system of experiment [15] is T-47D breast.
Experiment [16] deals with TK-10 renal.
The test system of experiment [17] is UACC-257 melanoma.
Experiment [18] deals with UO-31 renal.
The test system of experiment [19] is HL-60(TB) leukemia.
Experiment [20] concerns MALME-3M melanoma.

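Following 48 hours of exposure in 96-well plates, responses at five concentrations were used to interpolate endpoints linearly. TGI marks complete inhibition of growth.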 Where a SMILES comes first, the peptide text is derived from it. [ ]: non-standard residue; d: D form. The star is where a group is joined. Iva = CC[C](C)(N)C(=O)O; Boc = CC(C)(C)OC(=O)*; X52 = C1CCC(=NO*)C1 Some results are limits rather than exact numbers.

Take `C1CSCCSCCSCCSC1`: the TGI in experiment [1], in experiment [2], in experiment [3], in [4], in experiment [5] and in [6] was above 100 µM each time. In addition, the TGI in [7], in [8], in experiment [9], in experiment [10], in experiment [11] and in experiment [12] was above 100 µM each time. The TGI in [13], in [14], in experiment [15], in experiment [16], in experiment [17] and in experiment [18] was above 100 µM throughout.

As to `CCC(C)(NC(=O)C(C)NC(=O)OC(C)(C)C)C(=O)NC(C)C(=O)NC(C)(CC)C(=O)ON=C1CCCC1` (configuration not stated) (Boc-A[Iva]A[Iva]-X52; configuration not given here), the TGI in experiment [2], in experiment [3], in experiment [4], in [19], in experiment [5] and in experiment [6] was above 100 µM in each case. The TGI in experiment [20], in [7], in experiment [8], in [9], in experiment [10] and in experiment [11] was above 100 µM each time. Moreover, the TGI in [13], in [15] and in experiment [18] was above 100 µM in each case.

On to `CCCCN1CN2C(=O)C(C(=O)OCC)C(=O)c3sc4nc(SC)nc1c4c32` (configuration not stated), for which the TGI (usually the concentration at which net growth stops) in [1] is 30.7 µM; in [2], 30.6 µM; in experiment [4], 38 µM; in [19], above 100 µM; in experiment [5] it was 30.5 µM; in [6], 19.9 µM. For the same molecule, the TGI is 30.2 µM in experiment [20]; 32.6 µM in experiment [7]; 32.3 µM in experiment [8]; 33.6 µM in [9]; 34.6 µM in [10]; 36.8 µM in experiment [11]. The TGI in experiment [12] is 33.8 µM; in experiment [13], 34.1 µM; in experiment [14] it was 35.6 µM; in experiment [15] it was 42.7 µM; in experiment [16], 28.4 µM; in [17] it was 35.8 µM. The same molecule gave a TGI in experiment [18] of 37.4 µM.

On to `CCCC[C@H]1[C@@H](OCOc2ccccc2)COC(=O)N1[C@H](C)c1ccccc1`, for which the TGI in [1] turned out to be 47.8 µM; in experiment [2], 44.4 µM; in experiment [3], 35.8 µM; in experiment [4], 44.6 µM; in experiment [19], 59.4 µM; in experiment [5], 54 µM. For the same molecule, the total growth inhibition concentration (TGI) is 52.8 µM in [6]; 33.5 µM in [20]; 37.3 µM in experiment [7]; 32.4 µM in [8]; above 58.2 µM in [9]; 27.8 µM in experiment [10]. For the same molecule, the TGI in experiment [11] is above 100 µM; in experiment [13] it was 21.9 µM; in experiment [14] it was above 100 µM; in [15], above 40.4 µM; in experiment [16], 39 µM; in experiment [17] it was 29.5 µM. The TGI in experiment [18] was above 45.1 µM.

As to `COc1ccc(C2SCC(=O)N2NC(=O)c2ccncc2)cc1F` (configuration not stated), the TGI in experiment [1], in experiment [3], in experiment [4], in experiment [19], in experiment [5] and in [20] was above 100 µM each time. For the same molecule, the TGI in [9], in experiment [13], in experiment [14], in experiment [16] and in [17] was above 100 µM throughout.

In the case of `CC(C)OP(=O)(OC(C)C)c1nc(-c2ccccc2)n(-c2ccc([N+](=O)[O-])cc2)n1`, the TGI in experiment [1], in [3], in [4], in [19], in experiment [5] and in [20] was above 100 µM each time. Moreover, the TGI in experiment [9], in [10], in experiment [11], in experiment [12], in experiment [13] and in [14] was above 100 µM in each case. The TGI in experiment [16], in [17] and in [18] was above 100 µM throughout.

Source of the values: PubChem BioAssay (NCI).
